Earlier results, collected in patent US20040067963A1, “Methods to prevent or ameliorate trauma-related psychological disorders” (University of Florida, priority 2002, published 2004).

Columns and labels:
PTSD in 53 civilians = conditions: up to 60 mg/day
[1] = test system: patients with HRV parameters indicating autonomic dysregulation characteristic of PTSD; conditions: 16 patients, 20-60 mg of fluoxetine, vs controls
[2] = test system: patients with combat-related PTSD; conditions: 301 patients, by week 6 of treatment, normal to upper range of usual antidepressant doses
outpatients with PTSD = conditions: 12 week trial, 187 outpatients with PTSD, primarily female victims of sexual assault

| Structure (SMILES) | effect on symptom severity vs placebo (PTSD in 53 civilians; by week 2-4) | effectiveness on most measures, including disability improvement, vs placebo (PTSD in 53 civilians; by week 12) | heart rate variability (HRV) [1] | total Treatment Outcome PTSD rating scale score, change from baseline vs placebo [2] | efficacy compared with placebo (outpatients with PTSD) |
| --- | --- | --- | --- | --- | --- |
| CNCCC(Oc1ccc(C(F)(F)F)cc1)c1ccccc1 (centres unmarked) [fluoxetine] | significantly more effect on symptom severity than placebo | more effective on most measures | significantly higher HRV than controls | statistically significant improvement from baseline |  |
| CN[C@H]1CC[C@@H](c2ccc(Cl)c(Cl)c2)c2ccccc21 [sertraline] |  |  |  |  | significant superiority |
